This passage reports IC50 results from patent publication US12065442B2, “Tropomyosin receptor kinase (TRK) degradation compounds and methods of use” (Cullgen (Shanghai), Inc., priority 2018, dated 2024).

Each structure is given as a SMILES string. A value given as a limit tells only on which side of the number the result lay.

The first assay has as its system KM12 cells. Nature of the assay: Cell viability assay (CellTiter-Glo) in KM12 cells. The format is cell-based. The following applies: Homo sapiens, 72 h; Table 2; KM12 cell viability, CellTiter-Glo, 3 days; read-out: IC50. For orientation: In ATP-based viability assays light output follows the ATP content of the culture.
As for `Cc1ncsc1-c1ccc(CNC(=O)[C@@H]2C[C@@H](O)CN2C(=O)[C@@H](NC(=O)CCCCCCCCC(=O)N2CCN(c3cccc(-c4cnc5ccc(N6CCC[C@@H]6c6cccc(F)c6)nn45)n3)CC2)C(C)(C)C)cc1` [CPD-017, (2S,4R)-1-((S)-2-(10-(4-(6-(6-((R)-2-(3-Fluorophenyl)pyrrolidin-1-yl)imidazo[1,2-b]pyridazin-3-yl)pyridin-2-yl)piperazin-1-yl)-10-oxodecanamido)-3,3-dimethylbutanoyl)-4-hydroxy-N-(4-(4-methylthiazol-5-yl)benzyl)pyrrolidine-2-carboxamide], the IC50 is 145 nM.
Consider `O=C1CCC(N2C(=O)c3cccc(NCCOCCC(=O)N4CCN(c5ccc(C(=O)Nc6n[nH]c7ccc(Cc8cc(F)cc(F)c8)cc67)c(NC6CCOCC6)c5)CC4)c3C2=O)C(=O)N1` (centres unmarked) [CPD-030, N-(5-(3,5-Difluorobenzyl)-1H-indazol-3-yl)-4-(4-(3-(2-((2-(2,6-dioxopiperidin-3-yl)-1,3-dioxoisoindolin-4-yl)amino)ethoxy)propanoyl)piperazin-1-yl)-2-((tetrahydro-2H-pyran-4-yl)amino)benzamide], for which the IC50 came to 20.5 nM.
The same measure, in the same setting: then `O=C1CCC(N2C(=O)c3cccc(NCCCCCC(=O)N4CCN(c5ccc(C(=O)Nc6n[nH]c7ccc(Cc8cc(F)cc(F)c8)cc67)c(NC6CCOCC6)c5)CC4)c3C2=O)C(=O)N1` (centres unmarked) [CPD-056, N-(5-(3,5-difluorobenzyl)-1H-indazol-3-yl)-4-(4-(6-((2-(2,6-dioxopiperidin-3-yl)-1,3-dioxoisoindolin-4-yl)amino)hexanoyl)piperazin-1-yl)-2-((tetrahydro-2H-pyran-4-yl)amino)benzamide], with 12 nM; and `O=C1CCC(N2C(=O)c3cccc(NCCCCCCCC(=O)N4CCN(c5cccc(-c6cnc7ccc(N8CCC[C@@H]8c8cccc(F)c8)nn67)n5)CC4)c3C2=O)C(=O)N1` (stereo partly drawn) [CPD-024, 2-(2,6-Dioxopiperidin-3-yl)-4-((8-(4-(6-(6-((R)-2-(3-fluorophenyl)pyrrolidin-1-yl)imidazo[1,2-b]pyridazin-3-yl)pyridin-2-yl)piperazin-1-yl)-8-oxooctyl)amino)isoindoline-1,3-dione], with 10 nM; and `O=C1CCC(N2C(=O)c3cccc(NCCOCCOCCC(=O)N4CCN(c5cccc(-c6cnc7ccc(N8CCC[C@@H]8c8cccc(F)c8)nn67)n5)CC4)c3C2=O)C(=O)N1` (stereo partly drawn) [CPD-028, 2-(2,6-Dioxopiperidin-3-yl)-4-((2-(2-(3-(4-(6-(6-((R)-2-(3-fluorophenyl)pyrrolidin-1-yl)imidazo[1,2-b]pyridazin-3-yl)pyridin-2-yl)piperazin-1-yl)-3-oxopropoxy)ethoxy)ethyl)amino)isoindoline-1,3-dione], with 4.3 nM.
As to `O=C(CN1CCN(c2cccc(-c3cnc4ccc(N5CCC[C@@H]5c5cccc(F)c5)nn34)n2)CC1)NCCOCCOCCOCCNc1cccc2c1C(=O)N(C1CCC(=O)NC1=O)C2=O` (stereo partly drawn) [CPD-059, N-(2-(2-(2-(2-((2-(2,6-dioxopiperidin-3-yl)-1,3-dioxoisoindolin-4-yl)amino)ethoxy)ethoxy)-ethoxy)ethyl)-2-(4-(6-(6-((R)-2-(3-fluorophenyl)pyrrolidin-1-yl)imidazo[1,2-b]pyridazin-3-yl)pyridin-2-yl)piperazin-1-yl)acetamide], the IC50 was determined as 6 nM.

The same assay, now with this note: Homo sapiens, 72 h; Table 3; KM12 cell viability, CellTiter-Glo, 3 days; read-out: IC50.
Turning to `O=C1CCC(N2C(=O)c3ccc(NCCOCCOCCOCCOCCC(=O)N4CCN(c5cccc(-c6cnc7ccc(N8CCC[C@@H]8c8cccc(F)c8)nn67)n5)CC4)cc3C2=O)C(=O)N1` (stereo partly drawn) [TR-120, 2-(2,6-Dioxopiperidin-3-yl)-5-((15-(4-(6-(6-((R)-2-(3-fluorophenyl)pyrrolidin-1-yl)imidazo[1,2-b]pyridazin-3-yl)pyridin-2-yl)piperazin-1-yl)-15-oxo-3,6,9,12-tetraoxapentadecyl)amino)isoindoline-1,3-dione], the IC50 was 10 nM.
Turning to `O=C1CCC(N2Cc3cc(C#CCN4CCN(c5cccc(-c6cnc7ccc(N8CCC[C@@H]8c8cccc(F)c8)nn67)n5)CC4)ccc3C2=O)C(=O)N1` (stereo partly drawn) [TR-188, 3-(5-(3-(4-(6-(6-((R)-2-(3-Fluorophenyl)pyrrolidin-1-yl)imidazo[1,2-b]pyridazin-3-yl)pyridin-2-yl)piperazin-1-yl)prop-1-yn-1-yl)-1-oxoisoindolin-2-yl)piperidine-2,6-dione], the half-maximal inhibitory concentration (IC50) stood at 16.8 nM.
In the case of `O=C(CN1CCN(c2ccc(C(=O)Nc3n[nH]c4ccc(Cc5cc(F)cc(F)c5)cc34)c(NC3CCOCC3)c2)CC1)NCCCCCCNc1cccc2c1C(=O)N(C1CCC(=O)NC1=O)C2=O` (centres unmarked) [TR-147, N-(5-(3,5-Difluorobenzyl)-1H-indazol-3-yl)-4-(4-(2-((6-((2-(2,6-dioxopiperidin-3-yl)-1,3-dioxoisoindolin-4-yl)amino)hexyl)amino)-2-oxoethyl)piperazin-1-yl)-2-((tetrahydro-2H-pyran-4-yl)amino)benzamide], the concentration for half-maximal inhibition (IC50) amounted to 6.4 nM.
Same read-out and setting: then `CN1CCN(c2ccc(C(=O)Nc3n[nH]c4ccc(Cc5cc(F)cc(F)c5)cc34)c(NC3CCOCC3)c2)CC1` [Entrectinib, entrectinib, reference compound], with 4.3 nM; and `O=C(CN1CCN(c2ccc(C(=O)Nc3n[nH]c4ccc(Cc5cc(F)cc(F)c5)cc34)c(NC3CCOCC3)c2)CC1)NCCCCCCCCNc1cccc2c1C(=O)N(C1CCC(=O)NC1=O)C2=O` (centres unmarked) [TR-148, N-(5-(3,5-Difluorobenzyl)-1H-indazol-3-yl)-4-(4-(2-((8-((2-(2,6-dioxopiperidin-3-yl)-1,3-dioxoisoindolin-4-yl)amino)octyl)amino)-2-oxoethyl)piperazin-1-yl)-2-((tetrahydro-2H-pyran-4-yl)amino)benzamide], with 23.2 nM; and `O=C1CCC(N2C(=O)c3ccc(NCC4CCN(c5cccc(-c6cnc7ccc(N8CCC[C@@H]8c8cccc(F)c8)nn67)n5)CC4)cc3C2=O)C(=O)N1` (stereo partly drawn) [TR-178, 2-(2,6-Dioxopiperidin-3-yl)-5-(((1-(6-(6-((R)-2-(3-fluorophenyl)pyrrolidin-1-yl)imidazo[1,2-b]pyridazin-3-yl)pyridin-2-yl)piperidin-4-yl)methyl)amino)isoindoline-1,3-dione], with 67.7 nM.
Regarding `O=C(CN1CCN(c2cccc(-c3cnc4ccc(N5CCC[C@@H]5c5cccc(F)c5)nn34)n2)CC1)NCCOCCOCCOCCOCCNc1ccc2c(c1)C(=O)N(C1CCC(=O)NC1=O)C2=O` (stereo partly drawn) [TR-125, N-(14-((2-(2,6-dioxopiperidin-3-yl)-1,3-dioxoisoindolin-5-yl)amino)-3,6,9,12-tetraoxatetradecyl)-2-(4-(6-(6-((R)-2-(3-fluorophenyl)pyrrolidin-1-yl)imidazo[1,2-b]pyridazin-3-yl)pyridin-2-yl)piperazin-1-yl)acetamide], the IC50 turned out to be 2.8 nM.
Still for that read-out and setting: then `O=C(CN1CCN(c2cccc(-c3cnc4ccc(N5CCC[C@@H]5c5cccc(F)c5)nn34)n2)CC1)NCCCCCCCNc1cccc2c1C(=O)N(C1CCC(=O)NC1=O)C2=O` (stereo partly drawn) [TR-110, N-(7-((2-(2,6-dioxopiperidin-3-yl)-1,3-dioxoisoindolin-4-yl)amino)heptyl)-2-(4-(6-(6-((R)-2-(3-fluorophenyl)pyrrolidin-1-yl)imidazo[1,2-b]pyridazin-3-yl)pyridin-2-yl)piperazin-1-yl)acetamide], with 35.9 nM.

The same assay, now with this note: Homo sapiens, 72 h; Table 4; KM12 cell viability, CellTiter-Glo, 3 days; read-out: IC50.
As to `O=C1CCC(N2C(=O)c3ccc(N4CC(CN5CCC(N6CCC=C(c7cnc8ccc(N9CCC[C@@H]9c9cccc(F)c9)nn78)C6)CC5)C4)cc3C2=O)C(=O)N1` (stereo partly drawn) [TR-230, 2-(2,6-Dioxopiperidin-3-yl)-5-(3-((4-(5-(6-((R)-2-(3-fluorophenyl)pyrrolidin-1-yl)imidazo[1,2-b]pyridazin-3-yl)-3,6-dihydropyridin-1(2H)-yl)piperidin-1-yl)methyl)azetidin-1-yl)isoindoline-1,3-dione], the IC50 was above 500 nM.
With `O=C1CCC(N2C(=O)c3ccc(NC(=O)CN4CCN(c5cccc(-c6cnc7ccc(N8CCC[C@@H]8c8cccc(F)c8)nn67)n5)CC4)cc3C2=O)C(=O)N1` (stereo partly drawn) [TR-233, N-(2-(2,6-Dioxopiperidin-3-yl)-1,3-dioxoisoindolin-5-yl)-2-(4-(6-(6-((R)-2-(3-fluorophenyl)pyrrolidin-1-yl)imidazo[1,2-b]pyridazin-3-yl)pyridin-2-yl)piperazin-1-yl)acetamide], the IC50 came to 5 nM.
Same read-out and setting: as for `O=C1CCC(n2c(=O)n(CCN3CCN(c4cccc(-c5cnc6ccc(N7CCC[C@@H]7c7cccc(F)c7)cn56)n4)CC3)c3ccccc32)C(=O)N1` (stereo partly drawn) [TR-242, 3-(3-(2-(4-(6-(6-((R)-2-(3-fluorophenyl)pyrrolidin-1-yl)imidazo[1,2-a]pyridin-3-yl)pyridin-2-yl)piperazin-1-yl)ethyl)-2-oxo-2,3-dihydro-1H-benzo[d]imidazol-1-yl)piperidine-2,6-dione], the figure is above 500 nM; as for `O=C1CCC(N2C[C@H](c3cccc(C#CCN4CCN(c5cccc(-c6cnc7ccc(N8CCC[C@@H]8c8cccc(F)c8)nn67)n5)CC4)c3)OC2=O)C(=O)N1` (stereo partly drawn) [TR-223, 3-((S)-5-(3-(3-(4-(6-(6-((R)-2-(3-Fluorophenyl)pyrrolidin-1-yl)imidazo[1,2-b]pyridazin-3-yl)pyridin-2-yl)piperazin-1-yl)prop-1-yn-1-yl)phenyl)-2-oxooxazolidin-3-yl)piperidine-2,6-dione], 11.3 nM.
In the case of `O=C1CCC(N2C[C@H](c3cccc(CN4CCN(c5cccc(-c6cnc7ccc(N8CCC[C@@H]8c8cccc(F)c8)nn67)n5)CC4)c3)OC2=O)C(=O)N1` (stereo partly drawn) [TR-235, 3-((S)-5-(3-((4-(6-(6-((R)-2-(3-Fluorophenyl)pyrrolidin-1-yl)imidazo[1,2-b]pyridazin-3-yl)pyridin-2-yl)piperazin-1-yl)methyl)phenyl)-2-oxooxazolidin-3-yl)piperidine-2,6-dione], the IC50 worked out at 3.3 nM.
On to `O=C1CCC(N2Cc3cc(NCC4CN(c5cccc(-c6cnc7ccc(N8CCC[C@@H]8c8cccc(F)c8)nn67)n5)C4)ccc3C2=O)C(=O)N1` (stereo partly drawn) [TR-210, 3-(5-(((1-(6-(6-((R)-2-(3-Fluorophenyl)pyrrolidin-1-yl)imidazo[1,2-b]pyridazin-3-yl)pyridin-2-yl)azetidin-3-yl)methyl)amino)-1-oxoisoindolin-2-yl)piperidine-2,6-dione], for which the IC50 was 14 nM.

Usually IC50 stands for the concentration that inhibits the measured activity by half.
